{"source": "patent US20260306526A1", "about": "“COMBINATION THERAPY FOR BACTERIAL INFECTIONS COMPRISING ZINC-CHELATOR, BETA-LACTAM ANTIBIOTIC AND SERINE BETA-LACTAMASE INHIBITOR” (priority 2023, published 2026)", "key": {"[1]": {"system": "certain strains of Pseudomonas aeruginosa", "conditions": "with MEM; cited from earlier work"}, "[2]": {"system": "Pseudomonas aeruginosa ST773", "test": "MIC determination, fixed concentration of sBLI (Examples 19-26)", "format": "cell-based", "conditions": "NDM-1, OXA-395, PDC-16, caMHB", "description": "(§1) Antimicrobial susceptibility testing (AST) by broth microdilution (MIC determination) was performed according to The European Committee on Antimicrobial Susceptibility Testing (EUCAST) guidelines (see Reading guide for broth microdilution Version 5.0, 2024: https://www.eucast.org).\n(§2) For combinations containing meropenem as the antibiotic, Sensititre™ FINMER meropenem 64-0.03 μg/mL plates (Thermo Fischer Diagnostics custom plates; YFINMER) were used in most of the experiments. For other antibiotics (and for meropenem whenever a higher start concentration than 64 μg/mL was needed) sterile clear round bottom polystyrene (non-treated) 96-well microplates (Corning 3788) were used for making serial two-fold dilutions of the antibiotic in cation-adjusted Mueller Hinton II broth (caMHB; Thermo Scientific, T3462, containing 29.4 μM Zn^2+ or MILLIPORE, 90922-500G, containing 5.6 μM Zn^2+), across the columns of the microtiter plate (128-0.06 μg/mL; columns 1-12).\nThe checkerboard plates were all modified by adding a serine β-lactamase inhibitor (sBLI) at a fixed concentration of 16 μg/mL. Additionally, the zinc chelator was added at various fixed concentrations. Samples were mixed so that all plates contained a control containing antibiotic alone (no sBLI, no zinc chelator), a sample containing antibiotic and sBLI (double combination; no zinc chelator), and a sample containing antibiotic, sBLI and zinc chelator (triple combination). All test wells used in each plate contained growth medium (caMHB), and inoculated bacteria at a final inoculum between 3-7×10^5 CFU/mL. […] Synergy for the triple combination (antibiotic, sBLI, and zinc chelator) was defined as when the MIC in any of the rows containing the zinc chelator in combination with antibiotic and sBLI (triple combination), was lower than for antibiotic alone and lower than for the antibiotic and sBLI double combination.\n(§3) An X in rows 1~4 in the table indicates growth of the bacterial inoculum, while a blank cell indicates no growth. Concentrations (μg/mL) of MEM are given in row 0. TAZ and the zinc chelator were added in fixed concentrations (TAZ at 16 μg/mL in rows 2-4, zinc chelator at 16 μg/mL in row 3 and at 8 μg/mL in row 4). As a control, the effect of MEM alone was tested (row 1). All wells contained bacterial growth medium (caMHB, 29.4 μM Zn^2+) and were inoculated with the test bacterium. The grey cells indicate the meropenem MIC.\nas §3, with “AZT” for “MEM”, “AVI” for “TAZ”, “(AVI” for “(TAZ”, “aztreonam” for “meropenem”\nTwo technical replicates were performed for each sample. An X in rows 1-8 in the table indicates growth of the bacterial inoculum, while a blank cell indicates no growth. Concentrations (μg/mL) of PIP are given in row 0. AVI and the zinc chelator were added in fixed concentrations (AVI at 16 μg/mL in rows 3-8, zinc chelator at 16 μg/mL in rows 5-6 and at 8 μg/mL in rows 7-8). As a control, the effect of PIP alone was tested (rows 1-2). All wells contained bacterial growth medium (caMHB, 29.4 μM Zn^2+) and were inoculated with the test bacterium. The grey cells indicate the piperacillin MIC.\nas §3, with “PIP” for “MEM”, “All wells contained bacterial growth medium (caMHB, 29.4 μM Zn^2+) and were inoculated with the test bacterium. The grey cells indicate the meropenem MIC.” left out"}, "[3]": {"system": "Klebsiella pneumoniae K66-45", "test": "MIC determination, fixed concentration of sBLI (Examples 8-9)", "format": "cell-based", "conditions": "Example 9; with PIP and TAZ 16 μg/mL; NDM-1; caMHB, 29.4 μM Zn2+", "description": "as §1, §2\nThe checkerboard plates were all modified by adding a serine β-lactamase inhibitor (sBLI) at a fixed concentration of 16 μg/mL. Additionally, the zinc chelator was added at various fixed concentrations. […]"}}, "note": "Values joined by “and” are separate entries in the source; they are usually repeats but may differ in a detail not shown here. Identical values can stand only once.", "data": [{"compound": "CN(C[C@H](O)[C@@H](O)[C@H](O)[C@H](O)CO)C(=O)c1ccc(CN(Cc2ccccn2)Cc2ccccn2)nc1", "note": "[zinc chelator]", "values": [{"measurement": "effect of combination", "setting": "[1]", "value": "poor effect"}, {"measurement": "Synergy with the zinc chelator observed at concentration", "setting": "[2]; Example 19, with MEM and TAZ 16 μg/mL, 29.4 μM Zn2+", "value": 16, "unit": "µg/mL"}, {"measurement": "Synergy with the zinc chelator observed at concentration", "setting": "[2]; Example 20, with AZT and AVI 16 μg/mL, 29.4 μM Zn2+", "value": 16, "unit": "µg/mL"}, {"measurement": "Synergy with the zinc chelator observed at concentration", "setting": "[2]; Example 21, with PIP and AVI 16 μg/mL, 29.4 μM Zn2+, 8 μg/mL for one replicate only, other replicate not interpretable", "value": "16 µg/mL and 8 µg/mL"}, {"measurement": "Synergy with the zinc chelator observed at concentration", "setting": "[2]; Example 22, with PIP and TAZ 16 μg/mL, 29.4 μM Zn2+", "value": 16, "unit": "µg/mL"}, {"measurement": "Synergy with the zinc chelator observed at concentration", "setting": "[2]; Example 24, with MEM and TAZ 16 μg/mL, 5.6 μM Zn2+, 16 and 4 μg/ml not interpretable according to EUCAST", "value": 8, "unit": "µg/mL"}, {"measurement": "Synergy with the zinc chelator observed at concentration", "setting": "[2]; Example 26, with PIP and TAZ 16 μg/mL, 5.6 μM Zn2+, 16 μg/mL not interpretable according to EUCAST", "value": "8 µg/mL and 4 µg/mL"}, {"measurement": "Synergy with the zinc chelator observed at concentration", "setting": "[3]", "value": 16, "unit": "µg/mL"}]}]}
